Values quoted from earlier work as cited in patent US20060193845A1, “Combination therapy for controlled carbohydrate digestion” (ELIXIR PHARMACEUTICALS, INC., priority 2004, published 2006).

solubility in water: soluble
SMILES: OCCN1C[C@H](O)[C@@H](O)[C@H](O)[C@H]1CO [Miglitol, 3,4,5-piperidinetriol, 1-(2-hydroxyethyl)-2-(hydroxymethyl)-, [2R-(2α,3β,4α,5β)]]
